In patent publication US20230017786A1, “DEXTR[…] A DISEASE-MODIFYING TREATMENT FOR NEUROPSYCHIATRIC DISORDERS AND DISEASES” (priority 2020, published 2023):

Columns and labels:
healthy subjects = assay: Phase 1 SAD and MAD studies, safety and tolerability
[1] = molecular target: T1, human NMDA receptor GluN1-GluN2B (Homo sapiens, UniProt Q05586+Q13224); assay: cell-based; assay type: cell-based
T1 construct: expressed in transfected cells; host or cells: CHO

[2] = molecular target: T2, human NMDA receptor GluN1-GluN2A (Homo sapiens, UniProt Q05586+Q12879); assay: FLIPR calcium assay, test item effect on L-glutamate CRC, GluN1-GluN2A-CHO; assay type: cell-based
T2 construct: expressed in transfected cells; host or cells: CHO

[3] = molecular target: T3, human NMDA receptor GluN1-GluN2C (Homo sapiens, UniProt Q05586+Q14957); assay: FLIPR calcium assay, test item effect on L-glutamate CRC, GluN1-GluN2C-CHO; assay type: cell-based
T3 construct: expressed in transfected cells; host or cells: CHO

[4] = operational analysis for allosteric modulators

T2 sequence (Q12879 23-1464, other chains not shown): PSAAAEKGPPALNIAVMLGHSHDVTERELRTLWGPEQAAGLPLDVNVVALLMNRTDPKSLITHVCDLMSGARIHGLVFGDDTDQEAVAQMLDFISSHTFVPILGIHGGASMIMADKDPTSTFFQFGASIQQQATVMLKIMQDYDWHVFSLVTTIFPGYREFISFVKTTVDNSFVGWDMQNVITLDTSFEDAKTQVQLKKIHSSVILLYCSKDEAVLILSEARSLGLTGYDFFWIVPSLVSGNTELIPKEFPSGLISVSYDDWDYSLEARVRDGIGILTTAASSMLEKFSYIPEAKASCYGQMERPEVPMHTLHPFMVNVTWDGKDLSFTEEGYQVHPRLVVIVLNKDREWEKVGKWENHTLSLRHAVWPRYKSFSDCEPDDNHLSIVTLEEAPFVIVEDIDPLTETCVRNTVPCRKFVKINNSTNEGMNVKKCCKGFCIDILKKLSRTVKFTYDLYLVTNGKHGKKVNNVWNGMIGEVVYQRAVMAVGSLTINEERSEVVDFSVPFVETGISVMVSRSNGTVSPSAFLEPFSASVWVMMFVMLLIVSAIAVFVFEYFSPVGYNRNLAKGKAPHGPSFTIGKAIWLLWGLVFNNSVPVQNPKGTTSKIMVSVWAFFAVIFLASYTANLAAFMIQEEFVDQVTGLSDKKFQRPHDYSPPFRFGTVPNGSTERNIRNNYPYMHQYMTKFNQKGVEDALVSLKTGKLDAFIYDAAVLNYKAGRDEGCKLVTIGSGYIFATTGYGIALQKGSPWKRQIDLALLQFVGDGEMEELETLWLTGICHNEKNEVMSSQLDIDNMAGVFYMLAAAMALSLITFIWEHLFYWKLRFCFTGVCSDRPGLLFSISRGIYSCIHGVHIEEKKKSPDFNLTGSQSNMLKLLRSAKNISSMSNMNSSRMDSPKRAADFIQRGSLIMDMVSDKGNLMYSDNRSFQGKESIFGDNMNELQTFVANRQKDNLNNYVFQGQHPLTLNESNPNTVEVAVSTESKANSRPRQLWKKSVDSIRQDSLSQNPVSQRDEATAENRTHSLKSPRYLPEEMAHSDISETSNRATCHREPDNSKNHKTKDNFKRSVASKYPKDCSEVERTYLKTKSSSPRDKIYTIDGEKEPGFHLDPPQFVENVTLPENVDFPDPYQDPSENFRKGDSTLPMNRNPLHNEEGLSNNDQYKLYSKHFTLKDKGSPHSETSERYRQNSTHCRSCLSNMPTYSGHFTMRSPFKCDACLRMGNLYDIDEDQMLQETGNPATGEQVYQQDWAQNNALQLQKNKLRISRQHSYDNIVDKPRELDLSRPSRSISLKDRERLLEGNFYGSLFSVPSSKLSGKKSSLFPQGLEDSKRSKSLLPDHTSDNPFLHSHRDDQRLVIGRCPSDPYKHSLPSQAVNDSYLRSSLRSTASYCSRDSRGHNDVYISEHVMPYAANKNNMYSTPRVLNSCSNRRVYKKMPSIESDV
T3 sequence (Q14957 20-1233, other chains not shown): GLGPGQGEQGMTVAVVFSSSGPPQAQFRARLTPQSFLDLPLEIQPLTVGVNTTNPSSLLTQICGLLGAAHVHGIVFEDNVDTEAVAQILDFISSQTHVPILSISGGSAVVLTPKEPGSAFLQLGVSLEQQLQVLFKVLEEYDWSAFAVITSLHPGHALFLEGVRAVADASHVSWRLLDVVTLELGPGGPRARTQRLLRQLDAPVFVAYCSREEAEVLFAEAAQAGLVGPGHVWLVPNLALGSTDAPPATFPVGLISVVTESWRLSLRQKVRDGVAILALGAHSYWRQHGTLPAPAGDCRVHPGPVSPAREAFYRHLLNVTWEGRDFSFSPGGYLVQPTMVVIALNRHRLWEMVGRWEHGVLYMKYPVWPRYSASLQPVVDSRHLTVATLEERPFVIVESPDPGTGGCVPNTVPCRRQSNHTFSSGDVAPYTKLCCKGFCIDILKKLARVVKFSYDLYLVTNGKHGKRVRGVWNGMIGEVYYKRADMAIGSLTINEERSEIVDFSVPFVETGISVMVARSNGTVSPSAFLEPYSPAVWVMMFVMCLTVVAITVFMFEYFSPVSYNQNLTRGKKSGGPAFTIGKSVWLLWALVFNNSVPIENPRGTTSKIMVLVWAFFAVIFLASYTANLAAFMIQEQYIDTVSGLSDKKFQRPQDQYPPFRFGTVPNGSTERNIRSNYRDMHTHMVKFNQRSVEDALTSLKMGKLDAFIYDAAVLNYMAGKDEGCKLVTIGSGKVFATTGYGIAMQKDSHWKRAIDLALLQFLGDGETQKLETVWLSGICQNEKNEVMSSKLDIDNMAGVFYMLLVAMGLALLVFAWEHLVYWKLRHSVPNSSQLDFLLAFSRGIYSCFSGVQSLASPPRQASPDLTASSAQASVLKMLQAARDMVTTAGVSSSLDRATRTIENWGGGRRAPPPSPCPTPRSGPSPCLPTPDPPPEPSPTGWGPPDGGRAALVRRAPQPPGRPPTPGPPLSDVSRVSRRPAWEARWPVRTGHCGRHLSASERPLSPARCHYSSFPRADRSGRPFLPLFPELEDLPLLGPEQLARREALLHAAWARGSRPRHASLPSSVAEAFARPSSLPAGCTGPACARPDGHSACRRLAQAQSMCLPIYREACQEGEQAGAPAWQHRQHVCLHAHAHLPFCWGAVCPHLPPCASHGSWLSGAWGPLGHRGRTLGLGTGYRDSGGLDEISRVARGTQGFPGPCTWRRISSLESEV
T1 sequence (Q13224 27-1484, other chains not shown): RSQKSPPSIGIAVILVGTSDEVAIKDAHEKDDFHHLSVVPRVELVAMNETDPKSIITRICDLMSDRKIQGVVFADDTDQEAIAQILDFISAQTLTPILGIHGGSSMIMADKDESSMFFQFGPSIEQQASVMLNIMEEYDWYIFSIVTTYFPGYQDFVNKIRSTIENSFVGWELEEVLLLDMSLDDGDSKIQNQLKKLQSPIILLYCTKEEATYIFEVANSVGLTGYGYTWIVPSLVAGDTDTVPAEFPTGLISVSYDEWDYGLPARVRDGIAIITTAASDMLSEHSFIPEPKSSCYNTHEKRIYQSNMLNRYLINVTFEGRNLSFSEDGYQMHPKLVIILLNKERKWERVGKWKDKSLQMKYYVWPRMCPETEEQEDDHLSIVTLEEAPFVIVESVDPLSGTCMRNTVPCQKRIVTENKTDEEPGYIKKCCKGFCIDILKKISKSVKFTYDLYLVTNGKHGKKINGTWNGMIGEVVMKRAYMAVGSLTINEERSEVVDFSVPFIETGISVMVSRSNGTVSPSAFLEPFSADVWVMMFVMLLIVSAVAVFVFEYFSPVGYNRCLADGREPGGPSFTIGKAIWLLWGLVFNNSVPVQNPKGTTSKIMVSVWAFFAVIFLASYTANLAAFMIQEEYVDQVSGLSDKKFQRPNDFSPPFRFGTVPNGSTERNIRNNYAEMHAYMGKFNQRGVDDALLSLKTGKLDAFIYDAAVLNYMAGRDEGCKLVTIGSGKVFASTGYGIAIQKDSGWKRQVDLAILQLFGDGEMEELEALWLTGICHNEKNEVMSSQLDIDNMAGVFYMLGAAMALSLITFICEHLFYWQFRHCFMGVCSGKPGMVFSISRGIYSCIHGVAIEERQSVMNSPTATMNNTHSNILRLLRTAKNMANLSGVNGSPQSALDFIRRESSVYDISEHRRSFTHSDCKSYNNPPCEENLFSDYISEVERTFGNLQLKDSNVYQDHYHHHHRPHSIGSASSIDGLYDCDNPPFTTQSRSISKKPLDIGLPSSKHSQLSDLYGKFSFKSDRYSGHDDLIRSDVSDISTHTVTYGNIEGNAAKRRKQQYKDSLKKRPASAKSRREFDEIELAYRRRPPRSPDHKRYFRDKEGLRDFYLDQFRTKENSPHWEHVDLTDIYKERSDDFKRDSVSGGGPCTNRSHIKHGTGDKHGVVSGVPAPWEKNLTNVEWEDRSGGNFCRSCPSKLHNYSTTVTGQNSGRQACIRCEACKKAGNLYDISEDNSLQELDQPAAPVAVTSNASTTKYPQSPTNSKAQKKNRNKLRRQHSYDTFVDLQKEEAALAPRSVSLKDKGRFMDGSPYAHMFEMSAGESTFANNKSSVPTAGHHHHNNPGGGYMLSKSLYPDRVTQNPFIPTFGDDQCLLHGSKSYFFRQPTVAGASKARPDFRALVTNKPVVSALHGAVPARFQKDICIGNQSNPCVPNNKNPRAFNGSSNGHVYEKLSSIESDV

SMILES: CCC(=O)C(C[C@H](C)N(C)C)(c1ccccc1)c1ccccc1 [Dextromethadone, dextromethadone]
- QTcF changes from base-line (healthy subjects; SAD and MAD): none of the changes were considered clinically significant
- respiratory depression, dissociative and psychotomimetic effects, withdrawal signs and symptoms (healthy subjects; SAD and MAD, abrupt discontinuation): no evidence
- tolerability (healthy subjects; single doses up to 150 mg and daily doses up to 75 mg for 10 days): well tolerated
- α, estimated cooperativity term [1, 4]: 0.26
- L-glutamate CRC HillSlope ([1]; with test item 49 nM): 1.2
- L-glutamate CRC LogEC50 ([1]; with test item 49 nM): −7.0
- L-glutamate CRC HillSlope ([1]; with test item 195 nM): 1.2
- L-glutamate CRC LogEC50 ([1]; with test item 195 nM): −6.9
- L-glutamate CRC HillSlope ([1]; with test item 781 nM): 1.2
- L-glutamate CRC LogEC50 ([1]; with test item 781 nM): −6.9
- L-glutamate CRC HillSlope ([1]; with test item 3.1 μM): 1.1
- L-glutamate CRC LogEC50 ([1]; with test item 3.1 μM): −6.9
- L-glutamate CRC HillSlope ([1]; with test item 12.5 μM): 1.3
- L-glutamate CRC LogEC50 ([1]; with test item 12.5 μM): −6.7
- L-glutamate CRC HillSlope ([1]; with test item 50 μM): 1.1
- L-glutamate CRC LogEC50 ([1]; with test item 50 μM): −6.4
- α, estimated cooperativity term [2, 4]: 0.22
- L-glutamate CRC HillSlope ([2]; with test item 49 nM): 1.0
- L-glutamate CRC LogEC50 ([2]; with test item 49 nM): −6.7
- L-glutamate CRC HillSlope ([2]; with test item 195 nM): 1.1
- L-glutamate CRC LogEC50 ([2]; with test item 195 nM): −6.6
- L-glutamate CRC HillSlope ([2]; with test item 781 nM): 1.1
- L-glutamate CRC LogEC50 ([2]; with test item 781 nM): −6.6
- L-glutamate CRC HillSlope ([2]; with test item 3.1 μM): 1.0
- L-glutamate CRC LogEC50 ([2]; with test item 3.1 μM): −6.6
- L-glutamate CRC HillSlope ([2]; with test item 12.5 μM): 1.0
- L-glutamate CRC LogEC50 ([2]; with test item 12.5 μM): −6.4
- L-glutamate CRC HillSlope ([2]; with test item 50 μM): 1.4
- L-glutamate CRC LogEC50 ([2]; with test item 50 μM): −6.4
- α, estimated cooperativity term [3, 4]: 0.17
- L-glutamate CRC HillSlope ([3]; with test item 49 nM): 1.3
- L-glutamate CRC LogEC50 ([3]; with test item 49 nM): −6.8
- L-glutamate CRC HillSlope ([3]; with test item 195 nM): 1.4
- L-glutamate CRC LogEC50 ([3]; with test item 195 nM): −6.8
- L-glutamate CRC HillSlope ([3]; with test item 781 nM): 2.2
- L-glutamate CRC LogEC50 ([3]; with test item 781 nM): −6.8
- L-glutamate CRC HillSlope ([3]; with test item 3.1 μM): 1.4
- L-glutamate CRC LogEC50 ([3]; with test item 3.1 μM): −6.8
- L-glutamate CRC HillSlope ([3]; with test item 12.5 μM): 1.5
- L-glutamate CRC LogEC50 ([3]; with test item 12.5 μM): −6.7
- L-glutamate CRC HillSlope ([3]; with test item 50 μM): 1.7
- L-glutamate CRC LogEC50 ([3]; with test item 50 μM): −6.6
